Test results: US4160829A, “Antibacterial 1,2,4-oxadiazolylacetamido cephalosporins” (Gist-Brocades N.V., priority 1972, dated 1979)
Values after ≈ are worked out from the molar mass of the structure shown. Like-named read-outs stand apart in the source and are kept apart here.

Tests used:
Staph.aureus A 2000 [1] = assay: agar serial dilution test; type: cell-based, Staphylococcus aureus; details: agar serial dilution, 24 hours, 37° C.; for MIC: Staphylococcus aureus, A2000, 24 h, read-out: minimal inhibitory concentration (MIC)
Pseud.aerug. 2396 = assay: agar serial dilution test; type: cell-based; details: agar serial dilution, 24 hours, 37° C.; for MIC: read-out: minimal inhibitory concentration (MIC)
Prot.morg. 2241 = assay: agar serial dilution test; type: cell-based; details: agar serial dilution, 24 hours, 37° C.; for MIC: 24 h, read-out: minimal inhibitory concentration (MIC)
Staph.aureus A 2001 [2] = assay: micro serial dilution test; type: cell-based, Staphylococcus aureus; details: micro serial dilution (in brackets), about 18 hours, 30° C. or 37° C.; for MIC: Staphylococcus aureus, A2001, 18 h, read-out: minimal inhibitory concentration (MIC)
Prot.rettg. A 821 = assay: agar serial dilution test; type: cell-based, Proteus rettgeri; details: agar serial dilution, 24 hours, 37° C.; for MIC: Providencia rettgeri, 24 h, read-out: minimal inhibitory concentration (MIC)
Bac.Subt.ATCC 6633 = assay: agar serial dilution test; type: cell-based, Bacillus subtilis; details: agar serial dilution, 24 hours, 37° C.; for MIC: Bacillus subtilis, ATCC6633, 24 h, read-out: minimal inhibitory concentration (MIC)
Dipl.pneum. L 54 = assay: agar serial dilution test; type: cell-based, Diplococcus pneumoniae; details: agar serial dilution, 24 hours, 37° C.; for MIC: Streptococcus pneumoniae, read-out: minimal inhibitory concentration (MIC)
Staph.aureus A 321 = assay: agar serial dilution test; type: cell-based, Staphylococcus aureus; details: agar serial dilution, 24 hours, 37° C.; for MIC: Staphylococcus aureus, A321, 24 h, read-out: minimal inhibitory concentration (MIC)
Staph.aureus A 355 [3] = assay: micro serial dilution test; type: cell-based, Staphylococcus aureus; details: micro serial dilution (in brackets), about 18 hours, 30° C. or 37° C., penicillinase-producing strain; for MIC: Staphylococcus aureus, A355, read-out: minimal inhibitory concentration (MIC)
From the text: Two drops of a stock solution of the test compound (antibiotic) in a known concentration were brought into the first hole of a test plate with 9 numbered holes with a sterile Pasteur pipette. After rinsing this pipette three times with a physiological NaCl-solution, two drops of a stock solution of the test organism in a culture medium were brought in all the holes except for hole 8. In the first hole, the solution of the tested compound had been half diluted, then by stirring the liquid in the first hole and adding two drops of this mixture to the second hole and so on until hole 8, dilutions of the test compound solution were obtained in geometrical progression. The hole 9 contained no antibiotic and served for checking the growth of the testogranism in a blank medium. The test plate was incubated at 30° C. or 37° C. for about 18 hours.
^1 Penicillinase-producing strain

Prot.mirab. A 1200 = assay: agar serial dilution test; type: cell-based, Proteus mirabilis; details: agar serial dilution, 24 hours, 37° C.; for MIC: Proteus mirabilis, 24 h, read-out: minimal inhibitory concentration (MIC)
Salm.typh. R 127 = assay: agar serial dilution test; type: cell-based; details: 37° C.; for minimal inhibitory concentration (MIC): 24 hours; for MIC: 24 h, read-out: minimal inhibitory concentration (MIC)
[4] = test system: Pseud.aerug. Wyeth A 1058; assay: agar serial dilution test; type: cell-based; details: agar serial dilution, 24 hours, 37° C.; for MIC: read-out: minimal inhibitory concentration (MIC)
Shig.equir. T 3 = assay: agar serial dilution test; type: cell-based; details: 37° C.; for MIC: 24 h, read-out: minimal inhibitory concentration (MIC)
Pseud.aerug. H 10 = assay: agar serial dilution test; type: cell-based; details: agar serial dilution, 24 hours, 37° C.; for MIC: read-out: minimal inhibitory concentration (MIC)
Salm.dubl. P 43 = assay: agar serial dilution test; type: cell-based, Salmonella dublin; details: agar serial dilution, 24 hours, 37° C.; for MIC: Salmonella enterica, read-out: minimal inhibitory concentration (MIC)
Staph.aureus A 2000 [5] = assay: micro serial dilution test; type: cell-based, Staphylococcus aureus; details: micro serial dilution (in brackets), about 18 hours, 30° C. or 37° C.; for MIC: Staphylococcus aureus, A2000, 18 h, read-out: minimal inhibitory concentration (MIC)
Past.multo. A 723 = assay: agar serial dilution test; type: cell-based, Pasteurella multocida; details: agar serial dilution, 24 hours, 37° C.; for MIC: Pasteurella multocida, read-out: minimal inhibitory concentration (MIC)
Prot.mirab. L 93 = assay: agar serial dilution test; type: cell-based, Proteus mirabilis; details: for MIC: Proteus mirabilis
Staph.aureus A 355 [6] = assay: agar serial dilution test; details: penicillinase-producing strain; for MIC: Staphylococcus aureus, A355, 24 h, read-out: minimal inhibitory concentration (MIC), agar serial dilution, 24 hours, 37° C.
Prot.mirab. H 3 = assay: agar serial dilution test; type: cell-based, Proteus mirabilis; details: agar serial dilution, 24 hours, 37° C.; for MIC: Proteus mirabilis, read-out: minimal inhibitory concentration (MIC)
Staph.aureus A 2001 [7] = assay: agar serial dilution test; type: cell-based, Staphylococcus aureus; details: agar serial dilution, 24 hours, 37° C.; for MIC: Staphylococcus aureus, A2001, 24 h, read-out: minimal inhibitory concentration (MIC)
Strep. faec. L 80 = assay: agar serial dilution test; type: cell-based, Streptococcus faecalis; details: agar serial dilution, 24 hours, 37° C.; for MIC: Enterococcus faecalis, read-out: minimal inhibitory concentration (MIC)
Haem.infl. A 1030 = assay: micro serial dilution test; type: cell-based; details: micro serial dilution (in brackets), about 18 hours, 30° C. or 37° C.; for MIC: 18 h, read-out: minimal inhibitory concentration (MIC)
Esch.coli U 20 = assay: agar serial dilution test; type: cell-based, Escherichia coli; details: for MIC: Escherichia coli
Kleb.pneum. A 809 = assay: agar serial dilution test; type: cell-based, Klebsiella pneumoniae; details: agar serial dilution, 24 hours, 37° C.; for MIC: Klebsiella pneumoniae, read-out: minimal inhibitory concentration (MIC)
Strep.haem. A 266 = assay: agar serial dilution test; type: cell-based, Streptococcus haemolyticus; details: Streptococcus; agar serial dilution, 24 hours, 37° C.; read-out: minimal inhibitory concentration (MIC)
[8] = agar serial dilution, 24 hours, 37° C.
[9] = agar serial dilution, 24 hours, 37° C., read-out: minimal inhibitory concentration (MIC)
[10] = U20, agar serial dilution, 24 hours, 37° C., read-out: minimal inhibitory concentration (MIC)

## 7-[α-morpholino(3-methyl-1,2,4-oxadiazol-5-yl)-acetamido]-3-acetoxymethyl-3-cephem-4-carboxylic acid [Compound E]
Staph.aureus A 2000 [1]
  minimal inhibitory concentration (MIC): 12.5 µg/mL
Pseud.aerug. 2396
  minimal inhibitory concentration (MIC): > 100 µg/mL
Prot.morg. 2241
  minimal inhibitory concentration (MIC): > 100 µg/mL
Staph.aureus A 2001 [2]
  minimal inhibitory concentration (MIC): 4 µg/mL
Prot.rettg. A 821
  minimal inhibitory concentration (MIC): 3 µg/mL
Bac.Subt.ATCC 6633
  minimal inhibitory concentration (MIC): 6 µg/mL
Dipl.pneum. L 54
  minimal inhibitory concentration (MIC): 12.5 µg/mL
Staph.aureus A 321
  minimal inhibitory concentration (MIC): 6 µg/mL
Staph.aureus A 355 [3]
  minimal inhibitory concentration (MIC): 8 µg/mL
Prot.mirab. A 1200
  minimal inhibitory concentration (MIC): > 100 µg/mL
Salm.typh. R 127
  minimal inhibitory concentration (MIC): > 100 µg/mL
[4]
  minimal inhibitory concentration (MIC): > 100 µg/mL
Shig.equir. T 3; 24 hours
  minimal inhibitory concentration (MIC): > 100 µg/mL
Pseud.aerug. H 10
  minimal inhibitory concentration (MIC): > 100 µg/mL
Salm.dubl. P 43
  minimal inhibitory concentration (MIC): > 100 µg/mL
Staph.aureus A 2000 [5]
  minimal inhibitory concentration (MIC): 8 µg/mL
Past.multo. A 723
  minimal inhibitory concentration (MIC): 6 µg/mL
Prot.mirab. L 93; [8]
  minimal inhibitory concentration (MIC): 100 µg/mL
Staph.aureus A 355 [6]; [8]
  minimal inhibitory concentration (MIC): 12.5 µg/mL
Prot.mirab. H 3
  minimal inhibitory concentration (MIC): > 100 µg/mL
Staph.aureus A 2001 [7]
  minimal inhibitory concentration (MIC): 12.5 µg/mL
Strep. faec. L 80
  minimal inhibitory concentration (MIC): > 100 µg/mL
Haem.infl. A 1030
  minimal inhibitory concentration (MIC): > 125 µg/mL
Esch.coli U 20; [8]
  minimal inhibitory concentration (MIC): > 100 µg/mL
Kleb.pneum. A 809
  minimal inhibitory concentration (MIC): 25 µg/mL

## CC(=O)OCC1=C(C(=O)O)N2C(=O)[C@@H](NC(=O)Cc3noc(Cc4ccccc4)n3)[C@H]2SC1 [Compound C, 7-[(5-benzyl-1,2,4-oxadiazol-3-yl)-acetamido]-3-acetoxymethyl-3-cephem-4-carboxylic acid]
Staph.aureus A 2000 [1]
  MIC: 0.25 µg/mL (≈ 0.529 µM)
Pseud.aerug. 2396
  MIC: > 100 µg/mL
Prot.morg. 2241
  MIC: > 100 µg/mL
Staph.aureus A 2001 [2]
  MIC: 0.6 µg/mL (≈ 1.27 µM)
Strep.haem. A 266
  MIC: 0.5 µg/mL (≈ 1.06 µM)
Prot.rettg. A 821
  MIC: 50 µg/mL (≈ 106 µM)
Bac.Subt.ATCC 6633
  MIC: 0.25 µg/mL (≈ 0.529 µM)
Dipl.pneum. L 54
  MIC: 0.5 µg/mL (≈ 1.06 µM)
Staph.aureus A 321
  MIC: 0.25 µg/mL (≈ 0.529 µM)
Staph.aureus A 355 [3]
  MIC: 0.6 µg/mL (≈ 1.27 µM)
Prot.mirab. A 1200
  MIC: > 100 µg/mL
Salm.typh. R 127
  MIC: > 100 µg/mL
[4]
  MIC: > 100 µg/mL
Shig.equir. T 3
  MIC: 25 µg/mL (≈ 52.9 µM)
Pseud.aerug. H 10
  MIC: > 100 µg/mL
Salm.dubl. P 43
  MIC: > 100 µg/mL
Staph.aureus A 2000 [5]
  MIC: 0.3 µg/mL (≈ 0.635 µM)
Past.multo. A 723
  MIC: 1 µg/mL (≈ 2.12 µM)
Prot.mirab. L 93; [9]
  MIC: 25 µg/mL (≈ 52.9 µM)
Staph.aureus A 355 [6]
  MIC: 0.75 µg/mL (≈ 1.59 µM)
Prot.mirab. H 3
  MIC: > 100 µg/mL
Staph.aureus A 2001 [7]
  MIC: 0.25 µg/mL (≈ 0.529 µM)
Strep. faec. L 80
  MIC: 12.5 µg/mL (≈ 26.5 µM)
Haem.infl. A 1030
  MIC: 125 µg/mL (≈ 265 µM)
Esch.coli U 20; [10]
  MIC: > 100 µg/mL
Kleb.pneum. A 809
  MIC: 12.5 µg/mL (≈ 26.5 µM)

## CC(=O)OCC1=C(C(=O)O)N2C(=O)[C@@H](NC(=O)Cc3nc(C)no3)[C@H]2SC1 [Compound D, sodium-7-[(3-methyl-1,2,4-oxadiazol-5-yl)-acetamido]-3-acetoxymethyl-3-cephem-4-carboxylate]
Staph.aureus A 2000 [1]
  MIC: 0.75 µg/mL
Pseud.aerug. 2396
  MIC: > 100 µg/mL
Prot.morg. 2241
  MIC: > 100 µg/mL
Staph.aureus A 2001 [2]
  MIC: 0.6 µg/mL
Prot.rettg. A 821
  MIC: 1.5 µg/mL
Bac.Subt.ATCC 6633
  minimal inhibitory concentration (MIC): 0.12 µg/mL
Dipl.pneum. L 54
  MIC: 0.75 µg/mL
Staph.aureus A 321
  MIC: 0.5 µg/mL
Staph.aureus A 355 [3]
  MIC: 0.6 µg/mL
Prot.mirab. A 1200
  minimal inhibitory concentration (MIC): 25 µg/mL
Salm.typh. R 127
  minimal inhibitory concentration (MIC): 12.5 µg/mL
[4]
  MIC: > 100 µg/mL
Shig.equir. T 3
  MIC: 6 µg/mL
Pseud.aerug. H 10
  MIC: > 100 µg/mL
Salm.dubl. P 43
  MIC: 3 µg/mL
Staph.aureus A 2000 [5]
  MIC: 1 µg/mL
Past.multo. A 723
  MIC: 1.5 µg/mL
Prot.mirab. L 93; 24 h, read-out: minimal inhibitory concentration (MIC), agar serial dilution, 24 hours, 37° C.
  MIC: 12.5 µg/mL
Staph.aureus A 355 [6]
  MIC: 0.5 µg/mL
Prot.mirab. H 3
  MIC: 25 µg/mL
Staph.aureus A 2001 [7]
  MIC: 0.75 µg/mL
Strep. faec. L 80
  MIC: 50 µg/mL
Haem.infl. A 1030
  minimal inhibitory concentration (MIC): 30 µg/mL
Esch.coli U 20; U20, 24 h, read-out: minimal inhibitory concentration (MIC), agar serial dilution, 24 hours, 37° C.
  MIC: 12.5 µg/mL
Kleb.pneum. A 809
  MIC: 3 µg/mL

## COC(=O)C(C(=O)N[C@@H]1C(=O)N2C(C(=O)O)=C(COC(C)=O)CS[C@H]12)c1nc(C)no1 (stereo partly drawn) [Example 38, 7-[3-methyl-α-carbomethoxy-1,2,4-oxadiazol-5-yl-acetamido]cephalosporanic acid]
Staph.aureus A 2000 [1]
  MIC: 25 µg/mL (≈ 55 µM)
Pseud.aerug. 2396
  MIC: > 100 µg/mL
Prot.morg. 2241
  MIC: > 100 µg/mL
Staph.aureus A 2001 [2]
  MIC: 15 µg/mL (≈ 33 µM)
Prot.rettg. A 821
  MIC: 25 µg/mL (≈ 55 µM)
Bac.Subt.ATCC 6633
  MIC: 6 µg/mL (≈ 13.2 µM)
Dipl.pneum. L 54
  MIC: 12.5 µg/mL (≈ 27.5 µM)
Staph.aureus A 321
  MIC: 25 µg/mL (≈ 55 µM)
Staph.aureus A 355 [3]
  MIC: 23 µg/mL (≈ 50.6 µM)
Prot.mirab. A 1200
  MIC: > 100 µg/mL
Salm.typh. R 127
  MIC: 100 µg/mL (≈ 220 µM)
[4]
  MIC: > 100 µg/mL
Shig.equir. T 3
  MIC: 50 µg/mL (≈ 110 µM)
Pseud.aerug. H 10
  MIC: > 100 µg/mL
Salm.dubl. P 43
  MIC: 100 µg/mL (≈ 220 µM)
Staph.aureus A 2000 [5]
  MIC: 23 µg/mL (≈ 50.6 µM)
Past.multo. A 723
  MIC: 12.5 µg/mL (≈ 27.5 µM)
Prot.mirab. L 93; [9]
  MIC: 50 µg/mL (≈ 110 µM)
Staph.aureus A 355 [6]
  MIC: 25 µg/mL (≈ 55 µM)
Prot.mirab. H 3
  MIC: 100 µg/mL (≈ 220 µM)
Staph.aureus A 2001 [7]
  MIC: 25 µg/mL (≈ 55 µM)
Strep. faec. L 80
  MIC: > 100 µg/mL
Haem.infl. A 1030
  MIC: 125 µg/mL (≈ 275 µM)
Esch.coli U 20; [10]
  MIC: > 100 µg/mL
Kleb.pneum. A 809
  MIC: 50 µg/mL (≈ 110 µM)
